For data set [1], the target named is T1, human serum albumin (HSA) (Homo sapiens, UniProt P02768).
T1 construct: purchased Sigma-Aldrich A8763
Kind of data set: HSA binding by steady-state spectrofluorometry (complex fluorescence and Trp-214 quenching). The source says: The effect of HSA on the intrinsic fluorescence of InQ3 and InD3 was studied. Similarly to GaQ3 and tris(8-hydroxy-quinolinato)Al(III), InQ3 and InD3 are also fluorescent metal complexes (see Table 2 for λmax values). […] The fluorescence intensity of InQ3 increased in the presence of HSA, and emission intensity values measured at 530 nm show a saturation character plotted against the added HSA equivalents. […] At the same time, UV–vis absorbance spectra of InQ3 are only slightly altered by the binding interaction. Enhanced fluorescence of InQ3, and fast binding kinetics confirm the binding of the non-dissociated metal complex to the protein via intermolecular interactions. Fluorometric data can be excellently fitted with the computer program PSEQUAD [43] assuming a single site model (see Fig. 3), and a conditional binding constant of log K′ = 5.0 ± 0.1 was calculated for the HSA – InQ3 adduct. This constant indicates a moderate affinity of the complex on HSA.
Binding at the site I hydrophobic pocket of HSA can be followed via the selective excitation (λEX = 295 nm) of the single Trp (Trp-214) located close to this site. Trp-214 is sensitive to the binding events taking place at or near this site. The InQ3 complex quenched effectively the fluorescence of HSA, and a quenching constant (K’Q) could be computed based on the measured spectra: log K’Q = 5.1 ± 0.1.
Fluorescence studies were implemented by a Fluoromax (Horiba Jobin Yvon) fluorometer in 1 cm quartz cells. Samples contained 1 μM HSA or (apo)Tf and various protein-to-metal complex (or InCl3) ratios (up to complex/HSA = 1:30) were used. The excitation wavelength was 295 nm and 280 nm for HSA and Tf binding studies, respectively; emission intensity was registered between 300 and 450 nm. Intrinsic fluorescence of complex InQ3 was also followed at λEX = 367 nm, and λEM = 450 – 650 nm. In this setup, the complex concentration was ca. 10 or 20 μM, and protein (HSA, (apo)Tf) concentration was varied between 0 and 130 μM, and residual fluorescence of the proteins were subtracted if it was necessary. […] Computer program PSEQUAD [43] was utilized for the calculation of binding constants (K’) for HSA – InQ3 adducts similar to the approach described in our former works. Calculations were always based on data obtained from at least two independent measurements.

Data set [2] in a line: Speciation in threefold diluted human blood serum by UV-vis. It counts as in vitro ADME. The following applies: 10 µM complex. The text has this: With this knowledge, samples prepared in blood serum were studied by UV–vis spectrometry to count the significance of HMM and LMM serum components in the speciation of the complexes (Figs. 9 and S8). Unfortunately, fluorescence spectra could not be recorded due to the significant light scattering of the samples. […] UV–vis spectra in Fig. 9 resemble the behaviour observed for the complex – HSA – Tf ternary systems (Fig. S7) with some important differences. […] This refers to the altered coordination sphere of the metal complex. […] Keeping in mind the difficulties of interpretation of UV–vis spectroscopic data obtained in complex matrices, some assumptions can be made relying on the results of binary and ternary systems. Significant Tf binding of In(III) in blood serum is likely, while GaQ3 interacts less with this protein. […] Formation of HQ – Mg(II) complex is not feasible even at physiological Mg(II) ion levels (0.7–1.0 mM) based on the available stability constants. Zn(II) ion forms higher stability complexes with HQ as Mg(II) and could compete for HQ with In(III) or Ga(III) if its total blood plasma concentration (10–28 μM) would be freely available. […]
For (apo)Tf containing samples, complex concentrations were 20 μM and 0–2.5 equiv. protein was added. Reference spectra for the complexes, ligands and protein were recorded as well. […]

“And” between values parts separate entries of the source, which are not always exact repeats. Equal entries are not always repeated. Where only a bound is given, the exact number is not on record here.

T1 sequence (P02768 25-609): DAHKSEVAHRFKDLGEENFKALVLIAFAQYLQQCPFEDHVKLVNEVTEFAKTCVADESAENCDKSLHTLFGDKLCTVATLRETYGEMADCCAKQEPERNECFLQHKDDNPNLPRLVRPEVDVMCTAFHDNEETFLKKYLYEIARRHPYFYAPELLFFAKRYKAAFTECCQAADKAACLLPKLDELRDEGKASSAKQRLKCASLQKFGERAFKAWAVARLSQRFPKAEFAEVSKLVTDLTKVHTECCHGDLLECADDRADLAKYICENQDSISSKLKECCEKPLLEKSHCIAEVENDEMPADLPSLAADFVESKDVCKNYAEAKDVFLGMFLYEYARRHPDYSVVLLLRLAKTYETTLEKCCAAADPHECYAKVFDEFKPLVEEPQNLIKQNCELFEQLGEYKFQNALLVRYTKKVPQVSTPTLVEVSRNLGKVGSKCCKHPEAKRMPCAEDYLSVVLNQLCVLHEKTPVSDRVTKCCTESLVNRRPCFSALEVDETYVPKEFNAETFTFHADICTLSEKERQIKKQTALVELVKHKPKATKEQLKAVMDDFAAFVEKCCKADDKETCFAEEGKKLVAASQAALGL

With `[In+3].[O-]c1cccc2cccnc12.[O-]c1cccc2cccnc12.[O-]c1cccc2cccnc12` [InQ3, Tris(8-Quinolinolato)indium(III)], the “log K’Q (quenching constant)” value in data set [1] (Trp-214 quenching, λEX = 295 nm, pH 7.40) stood at 5.1 ± 0.1. Besides, the “time of the interaction with HSA” value in data set [1] (fluorometry) is on record as “within a few seconds”. Also, the “log K′ (conditional binding constant, HSA adduct)” value in data set [1] (fluorometry of the complex, single site model, pH 7.40, 25 °C) was 5.0–5.1 and 5.0 ± 0.1. For the same compound, the “time to reach chemical equilibrium in serum” value in data set [2] is 4 h.

As for `Cc1c([O-])c(=O)ccn1C.Cc1c([O-])c(=O)ccn1C.Cc1c([O-])c(=O)ccn1C.[In+3]` [InD3], the “binding on HSA (fluorescence intensities additive)” value in data set [1] (fluorometry, pH 7.40) is reported as “no considerable binding”.

Take `[Ga+3].[O-]c1cccc2cccnc12.[O-]c1cccc2cccnc12.[O-]c1cccc2cccnc12` [GaQ3, Tris(8-Quinolinolato)gallium(III), reference compound]: the “time to reach chemical equilibrium in serum” value in data set [2] was at most 0.167 h.
